In general, IC50 refers to the concentration at which inhibition is half-maximal. As a reminder, the Kd is the equilibrium constant for the complex coming apart.

Activity, IC50 and Kd data for 14 compounds are collected here from ChEMBL document CHEMBL5360584, “Sequence-Specific Dual DNA Binding Modes and Cytotoxicities of N-6-Functionalized Norcryptotackieine Alkaloids” (J Nat Prod, 2023).

Experiment [1] has as its system Calf thymus DNA. Kind of experiment: Binding affinity to calf thymus DNA assessed as change in absorption by UV-Vis spectrophotometric analysis. The format is nucleic-acid assay. As to conditions: Bos taurus.
For the next experiment, the system named is HEK293. Kind of experiment: Cytotoxicity against human HEK293 cells assessed as reduction in cell viability incubated for 24 hrs by MTT assay. The format is functional, cell-based. As to conditions: HEK293, 24 h. Background: Tetrazolium dyes change colour on reduction, which living cells bring about.
For a further experiment, the system named is B16-F10. Kind of experiment: Cytotoxicity against mouse B16F10 cells assessed as reduction in cell viability incubated for 24 hrs by MTT assay. The format is functional, cell-based. As to conditions: B16-F10, 24 h.
Another experiment has as its system OVCAR-3. Briefly: Cytotoxicity against human OVCAR-3 cells assessed as reduction in cell viability incubated for 24 hrs by MTT assay. The format is functional, cell-based. As to conditions: OVCAR-3, 24 h.
For a further experiment, the system named is HeLa. Briefly: Cytotoxicity against human HeLa cells assessed as reduction in cell viability incubated for 24 hrs by MTT assay. The format is functional, cell-based.
The subject of the next experiment is SK-OV-3. Kind of experiment: Cytotoxicity against human SK-OV-3 cells assessed as reduction in cell viability incubated for 24 hrs by MTT assay. As to conditions: SK-OV-3, 24 h. It counts as functional, cell-based.
Experiment [2] deals with Calf thymus DNA. Briefly: Binding affinity to calf thymus DNA assessed as dissociation constant by UV-Vis spectroscopic analysis. The format is nucleic-acid assay, Bos taurus.
For experiment [3], the system named is Calf thymus DNA. Briefly: Binding affinity to calf thymus DNA assessed as dissociation constant. It counts as nucleic-acid assay, Bos taurus.
For experiment [4], the system named is Calf thymus DNA. Briefly: Binding affinity to calf thymus DNA assessed as dissociation constant measured at 332 nm absorbance by UV-Vis spectroscopic analysis. The format is nucleic-acid assay, Bos taurus.
The test system of experiment [5] is Calf thymus DNA. Briefly: Binding affinity to calf thymus DNA assessed as dissociation constant measured at 337 nm absorbance by UV-Vis spectroscopic analysis. The format is nucleic-acid assay, Bos taurus.
In experiment [6] the test system is Calf thymus DNA. Kind of experiment: Binding affinity to calf thymus DNA assessed as dissociation constant by reverse titration method. It counts as nucleic-acid assay, Bos taurus.

Structures are written as SMILES. Calls of active or inactive are those of the source. The calls are words filed in the database; no cut-off is given here.

With `c1ccc2nc3c(cc2c1)c1ccccc1n3CCCN1CCCC1`, the result with Calf thymus DNA [1] was Active.
On to `CN(C)CCn1c2ccccc2c2cc3ccccc3nc21`, for which, in the experiment on Calf thymus DNA [1], the result was Active.
On to `CCCCn1c2ccccc2c2cc3ccccc3nc21`, for which the result with Calf thymus DNA [1] was Active.
On to `c1ccc2[nH]c3nc4ccccc4c-3cc2c1`, for which the outcome with Calf thymus DNA [1] was Active. Besides, the IC50 with HEK293, with B16-F10, in the experiment with OVCAR-3, with HeLa and in the experiment with SK-OV-3 was > 100 µM each time.
Regarding `CN(C)CCCCn1c2ccccc2c2cc3ccccc3nc21`, in the experiment on Calf thymus DNA [1], the result was Active.
For the compound `c1ccc2nc3c(cc2c1)c1ccccc1n3CCCN1CCOCC1`, in the experiment on Calf thymus DNA [1], the outcome was Active.
As for `Cn1c2ccccc2c2cc3ccccc3nc21`, in the experiment on Calf thymus DNA [1], the outcome was Active. In addition, the IC50 in the experiment on HEK293, in the experiment on B16-F10, in the experiment on OVCAR-3, with HeLa and with SK-OV-3 was > 100 µM in each case.
For `c1ccc(-n2c3ccccc3c3cc4ccccc4nc32)cc1`, in the experiment with Calf thymus DNA [1], the outcome was Active.
`CN1CCN(CCCn2c3ccccc3c3cc4ccccc4nc32)CC1`: the result in the experiment with Calf thymus DNA [1] was Active.
Still for that read-out and setting: in the case of `c1ccc2nc3c(cc2c1)c1ccccc1n3CCCn1ccnc1` it was “Active”.
As to `C[n+]1c2ccccc2cc2[n-]c3ccccc3c21` [CRYPTOLEPINE], the Kd with Calf thymus DNA [2] is 0.24 µM; in the experiment on Calf thymus DNA [3] it was 0.33 µM.
Regarding `CN(CCCn1c2ccccc2c2cc3ccccc3nc21)CCCn1c2ccccc2c2cc3ccccc3nc21`, in the experiment with Calf thymus DNA [1], the outcome was Active.
On the same count and under the same terms, in the case of `c1ccc(Cn2c3ccccc3c3cc4ccccc4nc32)cc1` it was “Active”.
As to `CN(C)CCCn1c2ccccc2c2cc3ccccc3nc21`, the Kd in the experiment on Calf thymus DNA [4] is 10 µM; with Calf thymus DNA [2], 20 µM; in the experiment with Calf thymus DNA [5] it was 120 µM; with Calf thymus DNA [6], 17 µM. Moreover, in the experiment with Calf thymus DNA [1], the result was Active.
